In ChEMBL document CHEMBL1128082, “Inhibition of an HIV-1 Tat-derived peptide binding to TAR RNA by aminoglycoside antibiotics” (Bioorg Med Chem Lett, 1995):

target: Nucleic Acid; test: Concentration required for the inhibition of HIV- 1 Tat-derived peptide binding to TAR RNA.; format: nucleic-acid assay

IC50 [µM] | Compound
0.92 | NC[C@@H]1O[C@H](O[C@H]2[C@@H](O)[C@H](O[C@@H]3[C@@H](O)[C@H](N)C[C@H](N)[C@H]3O[C@H]3O[C@H](CN)[C@@H](O)[C@H](O)[C@H]3N)O[C@@H]2CO)[C@H](N)[C@@H](O)[C@@H]1O [FRAMYCETIN]
9.5 | CN[C@@H]1[C@H](O[C@H]2[C@H](O[C@H]3[C@H](O)[C@@H](O)[C@H](N=C(N)N)[C@@H](O)[C@@H]3N=C(N)N)O[C@@H](C)[C@]2(O)C=O)O[C@@H](CO)[C@H](O)[C@H]1O [STREPTOMYCIN]

Compound | IC50 [µM]
GENTAMICIN | 45
